This is an account of results in patent publication US8680159B2, “Bradykinin 1 receptor modulating compounds” (Gruenenthal GmbH, priority 2010, dated 2014).

One assay has as its target T1, B1R receptor of the rat (CHO K1 cells stably transfected with the B1R gene of the rat) (Rattus norvegicus, UniProt P97583).
T1 construct: expressed in transfected cells; host or cells: CHO K1 cells (Chinese hamster ovary), stably transfected
T1 sequence (P97583 1-337): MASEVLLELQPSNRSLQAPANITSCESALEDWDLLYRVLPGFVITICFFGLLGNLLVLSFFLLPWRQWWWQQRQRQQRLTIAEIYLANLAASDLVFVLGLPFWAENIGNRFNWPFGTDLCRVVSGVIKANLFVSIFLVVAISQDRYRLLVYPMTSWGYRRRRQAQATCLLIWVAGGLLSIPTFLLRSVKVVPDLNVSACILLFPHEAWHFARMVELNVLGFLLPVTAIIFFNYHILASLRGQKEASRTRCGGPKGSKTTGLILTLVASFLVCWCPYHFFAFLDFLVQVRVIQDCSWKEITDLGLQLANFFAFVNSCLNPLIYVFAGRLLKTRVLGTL
Put plainly: Functional study on the bradykinin receptor 1 (B1R), Ca2+ fluorescence (Fluo-4) FLIPR/Novostar assay, rB1R cells. The class given is cell-based. To be noted: CHO-K1, 10 μM, library compounds CC_H, read-out: % Inhibition (r-B1R) at 10 μM. The gist of the method:
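Ca2+ influx (Fluo-4, peak fluorescence, λex 488/λem 540 nm) was measured in CHO K1 lines expressing rat or human B1R. After a 10 μM test-compound pre-addition scoring % activation, cells received EC80 agonist: Des-Arg9-bradykinin for rat, Lys-Des-Arg9-bradykinin for human. Antagonism was expressed as % of maximum inhibition, with IC50 from varied concentrations.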
As to `CN(C(=O)c1ccc2c(c1)C(NC(=O)CCC1CCCC1)CC2)C1CCN(c2ccnc(S(C)(=O)=O)n2)CC1` (stereo not shown) [CC_H-613, 3-(3-Cyclopentyl-propanoylamino)-N-methyl-N-[1-(2-methylsulfonyl-pyrimidin-4-yl)-piperidin-4-yl]-2,3-dihydro-1H-indene-5-carboxylic acid amide], the inhibition at 10 µM came out at 90%. The same measure, in the same setting: under `Cc1ncc2n1C(=O)N(C1CCC(N(C)C(=O)c3ccc4c(c3)C(NC(=O)c3ccccc3Cl)CC4)CC1)C2` (stereo not shown) [CC_H-618, 3-[(2-Chloro-benzoyl)amino]-N-methyl-N-[4-(5-methyl-3-oxo-1,2-dihydro-imidazo[5,1-e]imidazol-2-yl)-cyclohexyl]-2,3-dihydro-1H-indene-5-carboxylic acid amide] stands 84%; under `Cc1cc(N2CCC(N(C)C(=O)c3ccc4c(c3)C(NC(=O)c3ccccc3Cl)CC4)CC2)nc(N(C)C)n1` (stereo not shown) [CC_H-614, 3-[(2-Chloro-benzoyl)amino]-N-[1-(2-dimethylamino-6-methyl-pyrimidin-4-yl)-piperidin-4-yl]-N-methyl-2,3-dihydro-1H-indene-5-carboxylic acid amide], 101%; under `CN(C(=O)c1ccc2c(c1)C(NC(=O)c1ccccc1Cl)CC2)C1CCN(c2ccnc(C3CC3)n2)CC1` (stereo not shown) [CC_H-627, 3-[(2-Chloro-benzoyl)amino]-N-[1-(2-cyclopropyl-pyrimidin-4-yl)-piperidin-4-yl]-N-methyl-2,3-dihydro-1H-indene-5-carboxylic acid amide], 100%. With `CN(C)C(=O)c1cc(N2CCC(N(C)C(=O)c3ccc4c(c3)C(NC(=O)c3cccnc3C(F)(F)F)CC4)CC2)ccn1` (stereo not shown) [CC_H-601, N-[6-[[1-[2-(Dimethyl-carbamoyl)-pyridin-4-yl]-piperidin-4-yl]-methyl-carbamoyl]-2,3-dihydro-1H-inden-1-yl]-2-(trifluoromethyl)-pyridine-3-carboxylic acid amide], the inhibition at 10 µM is 74%.

On to `CN(C(=O)c1ccc2c(c1)C(NC(=O)c1ccccc1Cl)CC2)C1CCN(c2ncncc2F)CC1` (stereo not shown) [CC_H-631, 3-[(2-Chloro-benzoyl)amino]-N-[1-(5-fluoro-pyrimidin-4-yl)-piperidin-4-yl]-N-methyl-2,3-dihydro-1H-indene-5-carboxylic acid amide], for which the inhibition at 10 µM stood at 94%.

`CN(C(=O)c1ccc2c(c1)C(NC(=O)CCC1CCCC1)CC2)C1CCN(c2ccnnc2)CC1` (stereo not shown) [CC_H-634, 3-(3-Cyclopentyl-propanoylamino)-N-methyl-N-(1-pyridazin-4-yl-piperidin-4-yl)-2,3-dihydro-1H-indene-5-carboxylic acid amide]: the inhibition at 10 µM was 93%.

Staying with this assay, now noted: CHO-K1, 10 μM, read-out: % Inhibition (r-B1R) at 10 μM.
In the case of `CN(C(=O)c1ccc2c(c1)C(NC(=O)c1cc(C(F)(F)F)ccc1Cl)CC2)C1CCN(c2ccc3cnccc3c2)CC1` (stereo not shown) [CC_H-357, 3-[[2-Chloro-5-(trifluoromethyl)-benzoyl]amino]-N-(1-isoquinolin-6-yl-piperidin-4-yl)-N-methyl-2,3-dihydro-1H-indene-5-carboxylic acid amide], the inhibition at 10 µM was 110%. Same read-out and setting: under `CN(C(=O)c1ccc2c(c1)C(NC(=O)Nc1c(Cl)cccc1Cl)CC2(C)C)C1CCN(c2ccncc2)CC1` (stereo not shown) [CC_H-234, 3-[[(2,6-Dichloro-phenyl)-carbamoyl]amino]-N,1,1-trimethyl-N-(1-pyridin-4-yl-piperidin-4-yl)-2,3-dihydro-indene-5-carboxylic acid amide] stands 108%; under `CN(C(=O)c1ccc2c(c1)C(NC(=O)Nc1cccc(Cl)c1Cl)CCO2)C1CCN(c2ccncc2)CC1` (stereo not shown) [CC_H-282, 4-[[(2,3-Dichloro-phenyl)-carbamoyl]amino]-N-methyl-N-(1-pyridin-4-yl-piperidin-4-yl)-3,4-dihydro-2H-chromene-6-carboxylic acid amide], 102%; under `CN(C(=O)c1ccc2c(c1)C(NC(=O)c1cc(Cl)ccc1Cl)CC2)C1CCN(c2ccncc2)CC1` (stereo not shown) [CC_H-203, 3-[(2,5-Dichloro-benzoyl)amino]-N-methyl-N-(1-pyridin-4-yl-piperidin-4-yl)-2,3-dihydro-1H-indene-5-carboxylic acid amide], 111%. Same read-out and setting: in the case of `CC(C)CC(=O)NC1CCc2ccc(C(=O)N(C)C3CCN(c4ccc5cnccc5c4)CC3)cc21` (stereo not shown) [CC_H-379, N-(1-Isoquinolin-6-yl-piperidin-4-yl)-N-methyl-3-(3-methyl-butanoylamino)-2,3-dihydro-1H-indene-5-carboxylic acid amide] it was 110%; in that of `Cc1cc(N2CCC(N(C)C(=O)c3ccc4c(c3)C(NC(=O)C3CCCCC3)CC4)CC2)cc(C)n1` (stereo not shown) [CC_H-297, 3-(Cyclohexanecarbonylamino)-N-[1-(2,6-dimethyl-pyridin-4-yl)-piperidin-4-yl]-N-methyl-2,3-dihydro-1H-indene-5-carboxylic acid amide], 110%. Same read-out and setting: under `CN(C(=O)c1ccc2c(c1)C(NC(=O)c1cc(F)ccc1Cl)CCC2)C1CCN(c2ccncc2)CC1` (stereo not shown) [CC_H-246, 8-[(2-Chloro-5-fluoro-benzoyl)amino]-N-methyl-N-(1-pyridin-4-yl-piperidin-4-yl)-5,6,7,8-tetrahydro-naphthalene-2-carboxylic acid amide] stands 112%. For the compound `CN(C(=O)c1ccc2c(c1)C(NC(=O)C1CC1)CC2)C1CCN(c2ccncc2)CC1` (stereo not shown) [CC_H-205, 3-(Cyclopropanecarbonylamino)-N-methyl-N-(1-pyridin-4-yl-piperidin-4-yl)-2,3-dihydro-1H-indene-5-carboxylic acid amide], the inhibition at 10 µM came out at 98%.

For the compound `Cc1cc(N2CCC(N(C)C(=O)c3ccc4c(c3)C(NC(=O)Nc3cccc(Cl)c3Cl)CC4)CC2)cc(C)n1` (stereo not shown) [CC_H-307, 3-[[(2,3-Dichloro-phenyl)-carbamoyl]amino]-N-[1-(2,6-dimethyl-pyridin-4-yl)-piperidin-4-yl]-N-methyl-2,3-dihydro-1H-indene-5-carboxylic acid amide], the inhibition at 10 µM was found to be 91%.

`CN(C(=O)c1ccc2c(c1)C(NC(=O)Nc1cccc(Cl)c1)CCC2)C1CCN(c2ccncc2)CC1` (stereo not shown) [CC_H-256, 8-[[(3-Chlorophenyl)-carbamoyl]amino]-N-methyl-N-(1-pyridin-4-yl-piperidin-4-yl)-5,6,7,8-tetrahydro-naphthalene-2-carboxylic acid amide]: the inhibition at 10 µM is 96%. On the same count and under the same terms, in the case of `CN(C(=O)c1ccc2c(c1)C(NC(=O)c1cc(F)ccc1Cl)CC2)C1CCN(c2ccc3cnccc3c2)CC1` (stereo not shown) [CC_H-356, 3-[(2-Chloro-5-fluoro-benzoyl)amino]-N-(1-isoquinolin-6-yl-piperidin-4-yl)-N-methyl-2,3-dihydro-1H-indene-5-carboxylic acid amide] it was 109%. On the same count and under the same terms, in the case of `Cc1ccc(NC(=O)NC2CCCc3ccc(C(=O)N(C)C4CCN(c5ccncc5)CC4)cc32)c(C)c1` (stereo not shown) [CC_H-266, 8-[[(2,4-Dimethyl-phenyl)-carbamoyl]amino]-N-methyl-N-(1-pyridin-4-yl-piperidin-4-yl)-5,6,7,8-tetrahydro-naphthalene-2-carboxylic acid amide] it was 63%; in that of `CC(=O)N(C)C1CCc2ccc(C(=O)N(C)C3CCN(c4ccncc4)CC3)cc21` (stereo not shown) [CC_H-215, 3-(Acetyl-methyl-amino)-N-methyl-N-(1-pyridin-4-yl-piperidin-4-yl)-2,3-dihydro-1H-indene-5-carboxylic acid amide], 65%. On to `CN(C(=O)c1ccc2c(c1)C(NC(=O)c1cc(C(F)(F)F)ccc1Cl)CC2(C)C)C1CCN(c2ccncc2)CC1` (stereo not shown) [CC_H-223, 3-[[2-Chloro-5-(trifluoromethyl)-benzoyl]amino]-N,1,1-trimethyl-N-(1-pyridin-4-yl-piperidin-4-yl)-2,3-dihydro-indene-5-carboxylic acid amide], for which the inhibition at 10 µM came out at 109%. On the same count and under the same terms, in the case of `CN(C(=O)c1ccc2c(c1)C(NC(=O)C1CC1)CCO2)C1CCN(c2ccncc2)CC1` (stereo not shown) [CC_H-274, 4-(Cyclopropanecarbonylamino)-N-methyl-N-(1-pyridin-4-yl-piperidin-4-yl)-3,4-dihydro-2H-chromene-6-carboxylic acid amide] it was 91%. As for `CN(C(=O)c1ccc2c(c1)C(NC(=O)Nc1ccc(F)c(Cl)c1)CC2(C)C)C1CCN(c2ccncc2)CC1` (stereo not shown) [CC_H-242, 3-[[(3-Chloro-4-fluoro-phenyl)-carbamoyl]amino]-N,1,1-trimethyl-N-(1-pyridin-4-yl-piperidin-4-yl)-2,3-dihydro-indene-5-carboxylic acid amide], the inhibition at 10 µM came out at 52%.

Take `CN(C(=O)c1ccc2c(c1)C(NS(=O)(=O)Cc1ccccc1F)CC2)C1CCN(c2ccc3cnccc3c2)CC1` (stereo not shown) [CC_H-384, 3-[[(2-Fluorophenyl)-methylsulfonyl]amino]-N-(1-isoquinolin-6-yl-piperidin-4-yl)-N-methyl-2,3-dihydro-1H-indene-5-carboxylic acid amide]: the inhibition at 10 µM was 109%. The same measure, in the same setting: under `Cc1cc(N2CCC(N(C)C(=O)c3ccc4c(c3)C(N(C)C(=O)c3cc(F)ccc3Cl)CC4)CC2)cc(C)n1` (stereo not shown) [CC_H-325, 3-[(2-Chloro-5-fluoro-benzoyl)-methyl-amino]-N-[1-(2,6-dimethyl-pyridin-4-yl)-piperidin-4-yl]-N-methyl-2,3-dihydro-1H-indene-5-carboxylic acid amide] stands 112%.
